Source: ChEMBL document CHEMBL3813627, “Preventive effect of a novel diosgenin derivative on arterial and venous thrombosis in vivo” (Bioorg Med Chem Lett, 2016)
Calls of active or inactive are those of the source. The rule behind the calls is not given here.

Experiments:
Mus musculus [1] = experiment: Toxicity in Balb/c mouse assessed as white blood cell count at 92.1 mg/kg, ig bid for 7 days (reference value: 7.7 +/- 0.65 10^9/L); format: organism-based; conditions: in vivo, po, 168 h
Mus musculus [2] = experiment: Toxicity in Balb/c mouse assessed as hemoglobin count at 92.1 mg/kg, ig bid for 7 days (reference value: 143 +/- 11.9 g/L); format: organism-based; conditions: in vivo, po, 168 h
Mus musculus [3] = experiment: Toxicity in Balb/c mouse assessed as hematocrit at 92.1 mg/kg, ig bid for 7 days (reference value: 40.5 +/- 3.5 %); format: organism-based; conditions: in vivo, po, 168 h
Mus musculus [4] = experiment: Hepatotoxicity in Balb/c mouse assessed as changes in serum GPT level at 92.1 to 575.5 mg/kg, po administered as single dose for 7 days; format: toxicity, organism-based; conditions: in vivo, 168 h
Rattus norvegicus [5] = species: Rattus norvegicus; experiment: Gastric toxicity in Sprague-Dawley rat assessed as gastric mucosal damage score treated for 49 days by hematoxylin and eosin staining based microscopic analysis; format: organism-based, Gastric mucosa; conditions: in vivo, 1176 h
Rattus norvegicus [6] = species: Rattus norvegicus; experiment: Gastric toxicity in Sprague-Dawley rat assessed as angiogenesis treated for 49 days by hematoxylin and eosin staining based microscopic analysis; format: organism-based; conditions: in vivo, 1176 h
Rattus norvegicus [7] = species: Rattus norvegicus; experiment: Gastric toxicity in Sprague-Dawley rat assessed as fibrotic changes treated for 49 days by hematoxylin and eosin staining based microscopic analysis; format: organism-based; conditions: in vivo, 1176 h
Mus musculus [8] = experiment: Toxicity in Balb/c mouse assessed as mortality at 92.1 to 575.5 mg/kg, po administered as single dose for 7 days; format: organism-based; conditions: in vivo, 168 h
Mus musculus [9] = experiment: Hepatotoxicity in Balb/c mouse assessed as changes in serum GOT level at 92.1 to 575.5 mg/kg, po administered as single dose for 7 days; format: toxicity, organism-based; conditions: in vivo, 168 h
Mus musculus [10] = experiment: Hepatotoxicity in Balb/c mouse assessed as histopathological changes at 92.1 to 575.5 mg/kg, po administered as single dose for 7 days by hematoxylin and eosin staining based microscopic analysis; format: toxicity, organism-based; conditions: in vivo, 168 h
Rattus norvegicus [11] = experiment: Antiplatelet activity in platelet-rich plasma isolated from Sprague-Dawley rat assessed as ADP-induced platelet aggregation at 64 mg/kg, ig bid for 7 days measured for 5 mins by light transmission aggregometry (reference value: 57.57 +/- 2.43 %); format: functional
Rattus norvegicus [12] = experiment: Anticoagulant activity in platelet-rich plasma isolated from Sprague-Dawley rat assessed as activated partial thromboplastin time at 64 mg/kg, ig bid for 7 days (reference value: 17.6 +/- 0.92 secs); format: functional
Rattus norvegicus [13] = experiment: Antiplatelet activity in platelet-rich plasma isolated from ig dosed Sprague-Dawley rat assessed as inhibition of ADP-induced platelet aggregation administered bid for 7 days measured for 5 mins by light transmission aggregometry; format: functional, organism-based
Rattus norvegicus [14] = experiment: Anticoagulant activity in platelet-rich plasma isolated from Sprague-Dawley rat assessed as prothrombin time at 64 mg/kg, ig bid for 7 days (reference value: 11.6 +/- 0.98 secs); format: functional
Rattus norvegicus [15] = experiment: Anticoagulant activity in platelet-rich plasma isolated from Sprague-Dawley rat assessed as thrombin time at 64 mg/kg, ig bid for 7 days (reference value: 47.1 +/- 3.1 secs); format: functional
Rattus norvegicus [16] = experiment: In vivo activation of coagulation factor8 in Sprague-Dawley rat at 64 mg/kg, ig bid for 7 days by automated coagulometry; format: functional, organism-based
Rattus norvegicus [17] = experiment: In vivo activation of coagulation factor9 in Sprague-Dawley rat at 64 mg/kg, ig bid for 7 days by automated coagulometry; format: functional, organism-based
Rattus norvegicus [18] = experiment: In vivo activation of coagulation factor10 in Sprague-Dawley rat at 64 mg/kg, ig bid for 7 days by automated coagulometry; format: functional, organism-based
Rattus norvegicus [19] = experiment: In vivo activation of coagulation factor11 in Sprague-Dawley rat at 64 mg/kg, ig bid for 7 days by automated coagulometry; format: functional, organism-based
Rattus norvegicus [20] = experiment: In vivo activation of coagulation factor12 in Sprague-Dawley rat at 64 mg/kg, ig bid for 7 days by automated coagulometry; format: functional, organism-based
Rattus norvegicus [21] = experiment: Anti-thrombotic activity in Sprague-Dawley rat model of FeCl3-induced arterial thrombosis assessed as arterial thrombus length at 64 mg/kg, ig bid for 7 days by vernier caliper method (reference value: 10.5 +/- 0.83 mm); format: functional
Rattus norvegicus [22] = experiment: Anti-thrombotic activity in Sprague-Dawley rat model of FeCl3-induced arterial thrombosis assessed as arterial thrombus weight at 64 mg/kg, ig bid for 7 days (reference value: 12.94 +/- 0.7 mg); format: functional
Rattus norvegicus [23] = experiment: Anti-thrombotic activity in Sprague-Dawley rat model of FeCl3-induced venous thrombosis assessed as venous thrombus length at 64 mg/kg, ig bid for 7 days by vernier caliper method (reference value: 10.66 +/- 0.81 mm); format: functional
Rattus norvegicus [24] = experiment: Anti-thrombotic activity in Sprague-Dawley rat model of FeCl3-induced venous thrombosis assessed as venous thrombus weight at 64 mg/kg, ig bid for 7 days (reference value: 17.1 +/- 0.69 mg); format: functional
Mus musculus [25] = experiment: Toxicity in Balb/c mouse assessed as tail bleeding time at 92.1 mg/kg, ig bid for 7 days (reference value: 186 +/- 12 sec); format: organism-based; conditions: in vivo, po
Mus musculus [26] = experiment: Toxicity in Balb/c mouse assessed as red blood cell count at 92.1 mg/kg, ig bid for 7 days (reference value: 7.55 +/- 0.59 10^12/L); format: organism-based; conditions: in vivo, po, 168 h
Mus musculus [27] = experiment: Toxicity in Balb/c mouse assessed as platelet count at 92.1 mg/kg, ig bid for 7 days (reference value: 802 +/- 74 10^9/L); format: organism-based; conditions: in vivo, po, 168 h

Compound: CC(=O)Oc1ccccc1C(=O)O[C@H]1CC[C@@]2(C)C(=CC[C@H]3[C@@H]4C[C@@H]5O[C@]6(CC[C@@H](C)CO6)[C@@H](C)[C@@H]5[C@@]4(C)CC[C@@H]32)C1
- Activity (Mus musculus [1]): 7.82 ×10⁹ /L
- Activity (Mus musculus [2]): 133 g/L
- Activity (Mus musculus [3]): 38.9%
- Activity (Mus musculus [4]): Non-toxic
- UI (Rattus norvegicus [5]): 0.66
- Activity (Rattus norvegicus [6]): Non-toxic
- Activity (Rattus norvegicus [7]): Non-toxic
- Activity (Mus musculus [8]): Non-toxic
- Activity (Mus musculus [9]): Non-toxic
- Activity (Mus musculus [10]): Non-toxic
- Activity (Rattus norvegicus [11]): 29.42%
- APTT (Rattus norvegicus [12]): 22.6 s
- inhibition (Rattus norvegicus [13]): Dose-dependent effect
- PT (Rattus norvegicus [14]): 11.4 s
- TT (Rattus norvegicus [15]): 46.7 s
- Activity (Rattus norvegicus [16]): Active
- Activity (Rattus norvegicus [17]): inactive
- Activity (Rattus norvegicus [18]): inactive
- Activity (Rattus norvegicus [19]): inactive
- Activity (Rattus norvegicus [20]): inactive
- Activity (Rattus norvegicus [21]): 5 mm
- Activity (Rattus norvegicus [22]): 6.34 mg
- Activity (Rattus norvegicus [23]): 5.83 mm
- Activity (Rattus norvegicus [24]): 9.12 mg
- Time (Mus musculus [25]): 676 s
- Activity (Mus musculus [26]): 7.05 ×10¹² /L
- Activity (Mus musculus [27]): 790 ×10⁹ /L
